≈ marks a conversion by molar mass, not a printed value.
Experiments:
[1] = system: Mycobacterium avium; experiment: Antimycobacterial activity against Mycobacterium avium 101 by CLSI method; type: functional
[2] = system: Mycolicibacterium fortuitum; experiment: Antimycobacterial activity against Mycobacterium fortuitum 41 by CLSI method; type: functional
[3] = system: Mycobacteroides abscessus; experiment: Antimycobacterial activity against Mycobacterium abscessus 103 by CLSI method; type: functional
[4] = system: Mycobacteroides abscessus; experiment: Antimycobacterial activity against Mycobacterium abscessus 21 by CLSI method; type: functional
[5] = system: Mycobacteroides chelonae; experiment: Antimycobacterial activity against Mycobacterium chelonae 93 by CLSI method; type: functional
[6] = system: Mycobacteroides abscessus; experiment: Antimycobacterial activity against Mycobacterium abscessus 79 by CLSI method; type: functional
[7] = system: Mycobacteroides abscessus; experiment: Antimycobacterial activity against Mycobacterium abscessus 1 by CLSI method; type: functional
[8] = system: Mycobacterium tuberculosis; experiment: Antimycobacterial activity against Mycobacterium tuberculosis H37Rv MC2 6206 by CLSI method; type: functional
[9] = system: Mycobacteroides abscessus; experiment: Antimycobacterial activity against Mycobacterium massiliense 119 by CLSI method; type: functional, Mycobacterium abscessus subsp. massiliense
[10] = system: Mycobacterium intracellulare; experiment: Antimycobacterial activity against Mycobacterium intracellulare 1956 by CLSI method; type: functional
[11] = system: Mycolicibacterium peregrinum; experiment: Antimycobacterial activity against Mycobacterium peregrinum ATCC 700686 by CLSI method; type: functional
[12] = system: Mycobacteroides abscessus; experiment: Antimycobacterial activity against Mycobacterium abscessus ATCC 19977 by CLSI method; type: functional

Structure (SMILES) | MIC [1] [µg/mL] | MIC [2] [µg/mL] | MIC [3] [µg/mL] | MIC [4] [µg/mL] | MIC [5] [µg/mL] | MIC [6] [µg/mL] | MIC [7] [µg/mL] | MIC [8] [µg/mL] | MIC [9] [µg/mL] | MIC [10] [µg/mL] | MIC [11] [µg/mL] | MIC [12] [µg/mL]
CC1CC(C(=O)Nc2nc3c(F)c(F)c(F)cc3s2)CC(C)(C)C1 (stereo not given) | > 64 | 0.25 (≈ 0.701 µM) | 0.5 (≈ 1.4 µM) | 0.5 (≈ 1.4 µM) | 0.25 (≈ 0.701 µM) | 0.25 (≈ 0.701 µM) | 0.5 (≈ 1.4 µM) | 1 (≈ 2.81 µM) | 0.5 (≈ 1.4 µM) | > 64 | 0.12 (≈ 0.337 µM) | 
CC12CCCC(C(=O)Nc3nc4ccc(Cl)cc4s3)(CCC1)C2 | 8 (≈ 22.9 µM) | 0.25 (≈ 0.717 µM) | 0.12 (≈ 0.344 µM) | 0.12 (≈ 0.344 µM) | 0.25 (≈ 0.717 µM) | 0.12 (≈ 0.344 µM) | 0.25 (≈ 0.717 µM) | 0.5 (≈ 1.43 µM) | 0.12 (≈ 0.344 µM) | 4 (≈ 11.5 µM) | 0.12 (≈ 0.344 µM) | 
CC12CCCC(C(=O)Nc3nc4c(F)cc(F)cc4s3)(CCC1)C2 | 4 (≈ 11.4 µM) | 0.25 (≈ 0.713 µM) | 0.25 (≈ 0.713 µM) | 0.12 (≈ 0.342 µM) | 0.12 (≈ 0.342 µM) | 0.12 (≈ 0.342 µM) |  |  | 0.12 (≈ 0.342 µM) | 4 (≈ 11.4 µM) | 0.06 (≈ 0.171 µM) | 
Cc1cc(C)c2sc(NC(=O)C3CC(C)CC(C)(C)C3)nc2c1 (stereo not given) | > 64 | 0.5 (≈ 1.51 µM) | 0.25 (≈ 0.756 µM) | 0.25 (≈ 0.756 µM) | 0.25 (≈ 0.756 µM) | 0.25 (≈ 0.756 µM) | 0.5 (≈ 1.51 µM) |  | 0.5 (≈ 1.51 µM) | > 64 | 0.25 (≈ 0.756 µM) | 
CC12CCCC(C(=O)Nc3nc4cc(F)cc(F)c4s3)(CCC1)C2 | 4 (≈ 11.4 µM) | 0.25 (≈ 0.713 µM) | 0.06 (≈ 0.171 µM) | 0.06 (≈ 0.171 µM) | 0.06 (≈ 0.171 µM) | 0.06 (≈ 0.171 µM) | 0.12 (≈ 0.342 µM) |  | 0.25 (≈ 0.713 µM) | 4 (≈ 11.4 µM) | 0.06 (≈ 0.171 µM) | 
CC1CC(C(=O)Nc2nc3c(F)cccc3s2)CC(C)(C)C1 (stereo not given) | 8 (≈ 25 µM) | 0.5 (≈ 1.56 µM) |  | 1 (≈ 3.12 µM) | 2 (≈ 6.24 µM) | 2 (≈ 6.24 µM) | 2 (≈ 6.24 µM) | 4 (≈ 12.5 µM) | 1 (≈ 3.12 µM) | 8 (≈ 25 µM) | 2 (≈ 6.24 µM) | 
CC1CC(C(=O)Nc2nc3c(F)cc(Br)cc3s2)CC(C)(C)C1 (stereo not given) | > 64 | 2 (≈ 5.01 µM) | 1 (≈ 2.5 µM) | 0.5 (≈ 1.25 µM) | 0.25 (≈ 0.626 µM) | 0.5 (≈ 1.25 µM) | 1 (≈ 2.5 µM) |  | 1 (≈ 2.5 µM) | 16 (≈ 40.1 µM) | 0.5 (≈ 1.25 µM) | 
CC12CCCC(C(=O)Nc3nc4cc(Br)ccc4s3)(CCC1)C2 | 4 (≈ 10.2 µM) | 0.03 (≈ 0.0763 µM) | 0.06 (≈ 0.153 µM) | 0.06 (≈ 0.153 µM) | 0.06 (≈ 0.153 µM) | 0.06 (≈ 0.153 µM) | 0.25 (≈ 0.636 µM) | ≤ 0.12 | 0.06 (≈ 0.153 µM) | 1 (≈ 2.54 µM) | ≤ 0.07 | 
Cc1cc(C)c2sc(NC(=O)C34CCCC(C)(CCC3)C4)nc2c1 | 8 (≈ 23.4 µM) | 1 (≈ 2.92 µM) | 0.25 (≈ 0.73 µM) | 0.12 (≈ 0.35 µM) | 0.12 (≈ 0.35 µM) | 0.12 (≈ 0.35 µM) | 0.25 (≈ 0.73 µM) |  | 0.12 (≈ 0.35 µM) | 8 (≈ 23.4 µM) | 0.25 (≈ 0.73 µM) | 
CC1CC(C(=O)Nc2nc3ccc(C(F)(F)F)cc3s2)CC(C)(C)C1 (stereo not given) | > 64 | 0.5 (≈ 1.35 µM) |  | 0.5 (≈ 1.35 µM) | 0.25 (≈ 0.675 µM) | 0.5 (≈ 1.35 µM) | 0.5 (≈ 1.35 µM) |  | 2 (≈ 5.4 µM) | > 64 | 0.25 (≈ 0.675 µM) | 
O=C(Nc1nc2ccc(C(F)(F)F)cc2s1)C1CC2CCC1C2 (stereo not given) | 32 (≈ 94 µM) |  |  |  |  |  |  |  |  | 32 (≈ 94 µM) |  | > 64
CC1CC(C(=O)Nc2nc3cc(Cl)cc(Cl)c3s2)CC(C)(C)C1 (stereo not given) | 8 (≈ 21.5 µM) | 0.25 (≈ 0.673 µM) | 0.5 (≈ 1.35 µM) | 0.25 (≈ 0.673 µM) | 0.12 (≈ 0.323 µM) | 0.12 (≈ 0.323 µM) |  | 1 (≈ 2.69 µM) | 0.25 (≈ 0.673 µM) | 16 (≈ 43.1 µM) | 0.12 (≈ 0.323 µM) | 
CC1CC(C(=O)Nc2nc3cc(F)ccc3s2)CC(C)(C)C1 (stereo not given) | 16 (≈ 49.9 µM) | 2 (≈ 6.24 µM) |  | 0.5 (≈ 1.56 µM) | 2 (≈ 6.24 µM) | 2 (≈ 6.24 µM) | 2 (≈ 6.24 µM) |  | 2 (≈ 6.24 µM) | 16 (≈ 49.9 µM) | 4 (≈ 12.5 µM) | 1 (≈ 3.12 µM)
CC12CCCC(C(=O)Nc3nc4c(F)c(F)c(F)cc4s3)(CCC1)C2 | > 8 | 0.5 (≈ 1.36 µM) | 0.12 (≈ 0.326 µM) | 0.12 (≈ 0.326 µM) | 0.12 (≈ 0.326 µM) | 0.12 (≈ 0.326 µM) | 0.25 (≈ 0.679 µM) | ≤ 0.12 | 0.12 (≈ 0.326 µM) | 8 (≈ 21.7 µM) | 0.06 (≈ 0.163 µM) | 
CC1CC(C(=O)Nc2nc3ccc(F)cc3s2)CC(C)(C)C1 (stereo not given) | 8 (≈ 25 µM) | 0.25 (≈ 0.78 µM) | 0.25 (≈ 0.78 µM) | 0.5 (≈ 1.56 µM) | 0.25 (≈ 0.78 µM) | 0.5 (≈ 1.56 µM) | 0.5 (≈ 1.56 µM) | 4 (≈ 12.5 µM) | 0.25 (≈ 0.78 µM) | 8 (≈ 25 µM) | 0.06 (≈ 0.187 µM) | 
CC1(C)CCCC(C(=O)Nc2nc3ccc(C(F)(F)F)cc3s2)C1 (stereo not given) | > 64 | > 64 |  | 64 (≈ 180 µM) | 0.25 (≈ 0.701 µM) | 64 (≈ 180 µM) | > 64 |  | 0.5 (≈ 1.4 µM) | > 64 | 64 (≈ 180 µM) | 
